What was measured:
[1] = system: AML cell lines; test: Viable cell count of AML cell lines (Vi-CELL); assay type: cell-based; details: four AML cell lines, 48 hours; range across lines, units printed with the values; read-out: IC50, 50% reduced viable cell count compared to DMSO-treated cells
Experimental: AML cell lines were purchased from ATCC and maintained with IMDM (Gibco) supplemented with 10% FBS (Fisher Scientific) and 1% PSG (Gibco). Cells were plated at a density of 2-4×10^5 cells/ml, and treated with various doses of Compound A in 0.1% DMSO or 0.1% DMSO alone. Cell counts and viability were determined using the Vi-CELL XR Cell Viability Analyzer (Beckman Coulter). HL-60 and KG-1 cells overexpressing CREB or CBP were generated using lentiviral gene delivery with subsequent puromycin selection and FACs sorting for GFP. CREB knockdown was achieved by infecting cells with a lentivirus expressing the shRNA sequence 5′-[…]-3′ (SEQ ID NO:). For chemotherapy combination experiments, combination index values were calculated using median effects analysis on Calcusyn software. Human patient bone marrow samples were cultured in DMEM plus 20% FBS and 1×PSG, supplemented with recombinant GM-CSF (20 ng/ml), G-CSF (20 ng/ml), SCF (50 ng/ml), IL-3 (20 ng/ml), and IL-6 (10 ng/ml). Cells were plated at a concentration of 1×10^5 cells/ml in a 12-well plate. Vehicle (0.1% DMSO) or Compound A (2 μM) was added for up to 72 hours. All samples contained >85% AML blasts and were not sorted prior to performing experiments. […] Single cell suspensions of bone marrow culture were subsequently analyzed on a D×P10 flow cytometer (Cytek). […]

[2] = system: CREB target genes; test: RT-PCR of CREB target genes in GFP+ bone marrow cells of engrafted NSG mice; assay type: in vivo, mouse; details: 2.3 mg/kg, three once-daily treatments after ten-day engraftment
Experimental: To directly evaluate the effects of Compound A on CREB transcriptional activity in vivo, six NSG mice were injected with 2×10^6 HL-60 expressing GFP. After a ten-day engraftment period, the mice received three once-daily treatments of either 2.3 mg/kg Compound A or DMSO. The mice were then sacrificed and GFP+ bone marrow cells were sorted and analyzed for transcriptional changes in validated CREB target genes. This experiment recapitulated in vitro findings (FIG. 4, panel E).

[3] = system: Bcl-2, Mcl-1, Bcl-XL expression in HL-60 cells; test: RT-PCR and Western blot of anti-apoptotic proteins in HL-60 cells; assay type: cell-based, human; design: transcription of Bcl-2: dose or concentration left out as unconfirmed
Experimental: Total RNA was isolated using the Aurum RNA Isolation Mini Kit, and the iScript cDNA Synthesis Kit was used to prepare samples for qPCR (Bio-Rad). PCR was performed on the CFX384 Real-Time System (Bio-Rad) and results were analyzed using the Livak method. For analysis of RNA-seq data as target genes of known transcription factors, a curated list of all human target genes was extracted from the TRANSFAC Pro database.
Cells were lysed in RIPA buffer (Sigma), and the protein concentrations were determined by BCA assay (Thermo Scientific Pierce). Lysates were solubilized in 6×SDS PAGE buffer and […] of protein was loaded into 6-15% SDS PAGE gels, pheresed, and then transferred onto […] PVDF membrane (Millipore). Primary antibodies were applied at a dilution of 1:1000. Anti-Bcl-2, -Bax, -Mcl-1, -Bcl-XL, -Cyclin A and -Cyclin D1 antibodies were purchased from Cell Signaling Technologies. Anti-total acetylated histone and -ac-H3K27 were purchased from Santa Cruz Biotechnologies. Anti-actin and -CREB antibodies were purchased from upstate. Secondary antibodies were used at a 1:2500 dilution and purchased from Thermo Scientific/Pierce. WesternBright ECL was used for image acquisition on Image Lab software (Bio-Rad).
The balance between pro- and anti-apoptotic protein expression contributes to cell fate decisions. CREB regulates the expression of several anti-apoptotic proteins, including Bcl-2, Bcl-XL and Mcl-1. Bcl-2 expression in particular is known to mediate resistance to chemotherapy and influence clinical outcome in a number of cancer types, including AML. The ability of Compound A to cause apoptosis by disrupting the CREB-driven expression of these anti-apoptotic proteins was examined. In HL-60 cells treated with Compound A, apoptosis is induced in a dose- and time-dependent manner. […] Compound A elicited apoptosis through the intrinsic apoptosis pathway, with activation of Caspase-3 (FIG. 5, panel B) and detectable Caspase-9 cleavage (data not shown). […]

For N#Cc1ccc(NC(=O)c2cc3ccccc3cc2O)cc1 [Compound A, N-(4-cyanophenyl)-3-hydroxy-2-naphthamide], the IC50 [1] was 0.87 to 2.3 µM, the “expression of CREB target genes in vivo (RT-PCR)” value [2] was “significantly reduced expression of all genes shown” and the Bcl-XL expression [3] was “remained constant”. The “expression of Mcl-1” value [3] was “initially increased, then decreased at 72 hours” and the “transcription of Bcl-2” value ([3]; 72 hours) was “decreased”.
